pIC50: −log10 of the molar value.
Target: T1, Recombinant human HSP90a (Homo sapiens, UniProt P07900)
T1 construct: host or cells: E. coli
Assay: HSP90 radioligand filter binding test ([3H]17AAG competition)
Conditions: [3H]17AAG 0.08 μM, HSP90 1.5 μg/assay, 22° C., 30 min; read-out: IC50 (HSP90 inhibition)
Text: Test Method for the Measurement of HSP90 Inhibitors
The binding of geldanamycin or 17-allylamino-17-demethoxygeldanamycin (17AAG) to HSP90 and competitive inhibition thereof can be utilised in order to determine the inhibitory activity of the compounds according to the invention (Carreras et al. 2003, Chiosis et al. 2002).
In the specific case, a radioligand filter binding test is used. The radioligand used here is tritium-labelled 17-allylaminogeldanamycin, [3H]17AAG. This filter binding test allows a targeted search for inhibitors which interfere with the ATP binding site.
Recombinant human HSP90a (E. coli expressed, 95% purity);
[3H]17AAG (17-allylaminogeldanamycin, [allylamino-2,3-^3H. Specific activity: 1.11×10^12 Bq/mmol (Moravek, MT-1717);
HEPES filter buffer (50 mM HEPES, pH 7.0, 5 mM MgCl2, BSA 0.01%)
Multiscreen FB (1 μm) filter plate (Millipore, MAFBNOB 50).
The 96-well microtitre filter plates are firstly irrigated and coated with 0.1% of polyethylenimine.
The test is carried out under the following conditions:
Reaction temperature 22° C.
Reaction time: 30 min., shaking at 800 rpm
50 mM HEPES HCl, pH 7.0, 5 mM MgCl2, 0.01% (w/v) of BSA
At the end of the reaction, the supernatant in the filter plate is removed by suction with the aid of a vacuum manifold (Multiscreen Separation System, Millipore), and the filter is washed twice.
The filter plates are then measured in a beta counter (Microbeta, Wallac) with scintillator (Microscint 20, Packard).
“% of control” is determined from the “counts per minutes” values, and the IC-50 value of a compound is calculated therefrom.

Row | SMILES | pIC50
1 | CC(C)(C)NS(=O)(=O)c1ccccc1-c1ccc2nc(N)nc(C(=O)N3Cc4ccccc4C3)c2c1 [Compound A1, 2-[2-Amino-4-(1,3-dihydroisoindole-2-carbonyl)quinazolin-6-yl]-N-tert-butylbenzenesulfonamide] | 6.00 to 8.00
2 | Nc1nc(C(=O)N2Cc3ccccc3C2)c2cc(-c3ccccc3S(N)(=O)=O)ccc2n1 [Compound A2, 2-[2-amino-4-(1,3-dihydroisoindole-2-carbonyl)quinazolin-6-yl]-benzenesulfonamide] | 6.00 to 8.00
3 | CN(C)CCNS(=O)(=O)c1ccccc1-c1ccc2nc(N)nc(C(=O)N3Cc4ccccc4C3)c2c1 [Compound A3] | 6.00 to 8.00
4 | CN(C)S(=O)(=O)c1ccccc1-c1ccc2nc(N)nc(C(=O)N3Cc4ccccc4C3)c2c1 [Compound A4] | 6.00 to 8.00
5 | CCNS(=O)(=O)c1ccccc1-c1ccc2nc(N)nc(C(=O)N3Cc4ccccc4C3)c2c1 [Compound A5, 2-[2-Amino-4-(1,3-dihydroisoindole-2-carbonyl)quinazolin-6-yl]-N-ethylbenzenesulfonamide] | 6.00 to 8.00
6 | CNS(=O)(=O)c1ccccc1-c1ccc2nc(N)nc(C(=O)N3Cc4ccccc4C3)c2c1 [Compound A6, 2-[2-Amino-4-(1,3-dihydroisoindole-2-carbonyl)quinazolin-6-yl]-N-methylbenzenesulfonamide] | 6.00 to 8.00
7 | C[N+]1([O-])CCN(S(=O)(=O)c2ccccc2-c2ccc3nc(N)nc(C(=O)N4Cc5ccccc5C4)c3c2)CC1 [Compound A7] | 6.00 to 8.00
8 | CN(CCO)S(=O)(=O)c1ccccc1-c1ccc2nc(N)nc(C(=O)N3Cc4ccccc4C3)c2c1 [Compound A8] | 6.00 to 8.00
9 | Nc1nc(C(=O)N2Cc3ccccc3C2)c2cc(-c3ccccc3S(=O)(=O)N3CCC(O)CC3)ccc2n1 [Compound A9] | 6.00 to 8.00
10 | NCC(=O)OC1CCN(S(=O)(=O)c2ccccc2-c2ccc3nc(N)nc(C(=O)N4Cc5ccccc5C4)c3c2)CC1 [Compound A10, 1-{2-[2-amino-4-(1,3-dihydroisoindole-2-carbonyl)quinazolin-6-yl]benzenesulfonyl}piperidin-4-yl aminoacetate] | 6.00 to 8.00
11 | Nc1nc(C(=O)N2Cc3ccccc3C2)c2cc(-c3ccccc3S(=O)(=O)NCCO)ccc2n1 [Compound A11, 2-[2-Amino-4-(1,3-dihydroisoindole-2-carbonyl)quinazolin-6-yl]-N-(2-hydroxyethyl)benzenesulfonamide] | 6.00 to 8.00
12 | Nc1nc(C(=O)N2Cc3ccccc3C2)c2cc(-c3ccccc3S(=O)(=O)N3CCNC(=O)C3)ccc2n1 [Compound A12] | 6.00 to 8.00
13 | CNCCN(C)S(=O)(=O)c1ccccc1-c1ccc2nc(N)nc(C(=O)N3Cc4ccccc4C3)c2c1 [Compound A13, 2-[2-Amino-4-(1,3-dihydroisoindole-2-carbonyl)quinazolin-6-yl]-N-methyl-N-(2-methylaminoethyl)benzenesulfonamide] | 6.00 to 8.00
14 | NCCNS(=O)(=O)c1ccccc1-c1ccc2nc(N)nc(C(=O)N3Cc4ccccc4C3)c2c1 [Compound A14, 2-[2-Amino-4-(1,3-dihydroisoindole-2-carbonyl)quinazolin-6-yl]-N-(2-aminoethyl)benzenesulfonamide] | 6.00 to 8.00
15 | CN(CCOC(=O)CN)S(=O)(=O)c1ccccc1-c1ccc2nc(N)nc(C(=O)N3Cc4ccccc4C3)c2c1 [Compound A15, 2-({2-[2-amino-4-(1,3-dihydroisoindole-2-carbonyl)quinazolin-6-yl]benzenesulfonyl}methylamino)ethyl aminoacetate] | 6.00 to 8.00
16 | CNCCNS(=O)(=O)c1ccccc1-c1ccc2nc(N)nc(C(=O)N3Cc4ccccc4C3)c2c1 [Compound A16, 2-[2-amino-4-(1,3-dihydroisoindole-2-carbonyl)quinazolin-6-yl]-N-(2-methylaminoethyl)benzenesulfonamide] | 6.00 to 8.00
17 | CC(CN(C)C)NS(=O)(=O)c1ccccc1-c1ccc2nc(N)nc(C(=O)N3Cc4ccccc4C3)c2c1 (stereo not drawn) [Compound A17] | 6.00 to 8.00
18 | CN(Cc1cncn1C)S(=O)(=O)c1ccccc1-c1ccc2nc(N)nc(C(=O)N3Cc4ccccc4C3)c2c1 [Compound A18] | 6.00 to 8.00
19 | CC1CCCN1S(=O)(=O)c1ccccc1-c1ccc2nc(N)nc(C(=O)N3Cc4ccccc4C3)c2c1 (stereo not drawn) [Compound A19, {2-Amino-6-[2-(2-methylpyrrolidine-1-sulfonyl)phenyl]quinazolin-4-yl}-(1,3-dihydroisoindol-2-yl)methanone] | 6.00 to 8.00
20 | CC(=O)NC1CCN(S(=O)(=O)c2ccccc2-c2ccc3nc(N)nc(C(=O)N4Cc5ccccc5C4)c3c2)C1 (stereo not drawn) [Compound A20] | 6.00 to 8.00

Row | SMILES | pIC50
21 | Nc1nc(C(=O)N2Cc3ccccc3C2)c2cc(-c3ccccc3S(=O)(=O)N3CCC(CO)C3)ccc2n1 (stereo not drawn) [Compound A21, {2-Amino-6-[2-(3-hydroxymethylpyrrolidine-1-sulfonyl)phenyl]quinazolin-4-yl}-(1,3-dihydroisoindol-2-yl)methanone] | 6.00 to 8.00
22 | CN(CCO)C(=O)c1ccccc1-c1ccc2nc(N)nc(C(=O)N3Cc4ccccc4C3)c2c1 [Compound A22] | 6.00 to 8.00
23 | Nc1nc(C(=O)N2Cc3ccccc3C2)c2cc(-c3ccccc3C(=O)N3CCC(O)CC3)ccc2n1 [Compound A23] | 6.00 to 8.00
24 | CCN(CCO)C(=O)c1ccccc1-c1ccc2nc(N)nc(C(=O)N3Cc4ccccc4C3)c2c1 [Compound A24] | 6.00 to 8.00
25 | CCN(CCO)S(=O)(=O)c1ccccc1-c1ccc2nc(N)nc(C(=O)N3Cc4ccccc4C3)c2c1 [Compound A25, 2-[2-Amino-4-(1,3-dihydroisoindole-2-carbonyl)quinazolin-6-yl]-N-ethyl-N-(2-hydroxyethyl)benzenesulfonamide] | 6.00 to 8.00
26 | Nc1nc(C(=O)N2Cc3ccccc3C2)c2cc(-c3ccccc3S(=O)(=O)NC3CNC3)ccc2n1 [Compound A26, 2-[2-amino-4-(1,3-dihydroisoindole-2-carbonyl)quinazolin-6-yl]-N-azetidin-3-ylbenzenesulfonamide] | 6.00 to 8.00
27 | Nc1nc(C(=O)N2Cc3ccccc3C2)c2cc(-c3ccccc3S(=O)(=O)n3ccnc3)ccc2n1 [Compound A27, {2-Amino-6-[2-(imidazole-1-sulfonyl)phenyl]quinazolin-4-yl}-(1,3-dihydroisoindol-2-yl)methanone] | 5.00 to 6.00
28 | Cc1nccn1S(=O)(=O)c1ccccc1-c1ccc2nc(N)nc(C(=O)N3Cc4ccccc4C3)c2c1 [Compound A28, {2-Amino-6-[2-(2-methylimidazole-1-sulfonyl)phenyl]quinazolin-4-yl}-(1,3-dihydroisoindol-2-yl)methanone] | 6.00 to 8.00
29 | Nc1nc(C(=O)N2Cc3ccccc3C2)c2cc(-c3ccccc3S(=O)(=O)N3CC(N)C3)ccc2n1 [Compound A29, {2-amino-6-[2-(3-aminoazetidine-1-sulfonyl)phenyl]quinazolin-4-yl}-(1,3-dihydroisoindol-2-yl)methanone] | 6.00 to 8.00
30 | Cc1cn(S(=O)(=O)c2ccccc2-c2ccc3nc(N)nc(C(=O)N4Cc5ccccc5C4)c3c2)cn1 [Compound A30, {2-Amino-6-[2-(4-methylimidazole-1-sulfonyl)phenyl]quinazolin-4-yl}-(1,3-dihydroisoindol-2-yl)methanone] | 6.00 to 8.00
31 | Nc1nc(C(=O)N2Cc3ccccc3C2)c2cc(-c3ccccc3S(=O)(=O)N3CCC(O)C3)ccc2n1 (stereo not drawn) [Compound A31] | 6.00 to 8.00
32 | Nc1nc(C(=O)N2Cc3ccccc3C2)c2cc(-c3ccccc3S(=O)(=O)N3CCCC3)ccc2n1 [Compound A32, {2-Amino-6-[2-(pyrrolidine-1-sulfonyl)phenyl]quinazolin-4-yl}-(1,3-dihydroisoindol-2-yl)methanone] | 6.00 to 8.00
33 | Nc1nc(C(=O)N2Cc3ccccc3C2)c2cc(-c3ccccc3S(=O)(=O)N3CCC(N)C3)ccc2n1 (stereo not drawn) [Compound A33, {2-amino-6-[2-(3-aminopyrrolidine-1-sulfonyl)phenyl]quinazolin-4-yl}-(1,3-dihydroisoindol-2-yl)methanone] | 6.00 to 8.00
34 | Nc1nc(C(=O)N2Cc3ccccc3C2)c2cc(-c3ccccc3C(=O)N3CCC(CO)C3)ccc2n1 (stereo not drawn) [Compound A35] | 6.00 to 8.00
35 | Nc1nc(C(=O)N2Cc3ccccc3C2)c2cc(-c3ccccc3C(=O)N3CCC(O)C3)ccc2n1 (stereo not drawn) [Compound A36] | 6.00 to 8.00
36 | COC(=O)C1CCCN1C(=O)c1ccccc1-c1ccc2nc(N)nc(C(=O)N3Cc4ccccc4C3)c2c1 (stereo not drawn) [Compound A37, Methyl 1-{2-[2-amino-4-(1,3-dihydroisoindole-2-carbonyl)quinazolin-6-yl]benzoyl}pyrrolidine-2-carboxylate] | 6.00 to 8.00
37 | CN(C)C(=O)c1ccccc1-c1ccc2nc(N)nc(C(=O)N3Cc4ccccc4C3)c2c1 [Compound A38] | 6.00 to 8.00
38 | CCN(C)C(=O)c1ccccc1-c1ccc2nc(N)nc(C(=O)N3Cc4ccccc4C3)c2c1 [Compound A39] | 6.00 to 8.00
39 | CCN(CC)C(=O)c1ccccc1-c1ccc2nc(N)nc(C(=O)N3Cc4ccccc4C3)c2c1 [Compound A40, 2-[2-Amino-4-(1,3-dihydroisoindole-2-carbonyl)quinazolin-6-yl]-N,N-diethylbenzamide] | 6.00 to 8.00

Reference: patent publication US8546565B2, “Quinazolinamide derivatives” (Merck Patent Gesellschaft, priority 2008, dated 2013)
